Experimental data as given in publication PMC6308032 (Molecular Metabolism, 2018).

Assays:
healthy subjects = test: Pharmacodynamics; assay type: in vivo, human; settings: MAD, dulaglutide 1.5 mg/wk, LSM
[1] = Clinical pharmacokinetics, MAD part; assay type: in vivo; settings: human, SC once weekly
patients with T2DM = test: Adverse events, Phase 1b POC part; assay type: in vivo, human; settings: for Any TEAE: T2DM patients
[2] = Clinical pharmacokinetics, SAD part; assay type: in vivo; settings: human; for AUC(0-inf) / CL/F / Cmax / Tmax / Vd/F / half-life: plasma, sc
[3] = test system: healthy subjects and patients with T2DM; test: Other safety laboratory parameters; assay type: in vivo, human
[4] = Immunogenicity, anti-drug antibody; assay type: in vivo, human; settings: whole study
[5] = test system: healthy subjects and patients with T2DM; test: ECG analysis; assay type: in vivo, human

With “Dulaglutide: selective GLP-1 receptor agonist, positive control, 1.5 mg/0.5 mL single-use pen” as the compound, how does the “Body Weight Change from Baseline, Day 29” value (healthy subjects) read?
The value was -1.3 kg.

Which results are given for `CC[C@H](C)[C@H](NC(=O)[C@H](CC(C)C)NC(=O)[C@H](Cc1c[nH]c2ccccc12)NC(=O)[C@H](CCC(N)=O)NC(=O)[C@@H](NC(=O)[C@H](Cc1ccccc1)NC(=O)[C@H](C)NC(=O)[C@H](CCCCNC(=O)COCCOCCNC(=O)COCCOCCNC(=O)CC[C@H](NC(=O)CCCCCCCCCCCCCCCCCCC(=O)O)C(=O)O)NC(=O)[C@H](CCC(N)=O)NC(=O)[C@H](C)NC(=O)[C@@H](NC(=O)[C@H](CCCCN)NC(=O)[C@H](CC(=O)O)NC(=O)[C@H](CC(C)C)NC(=O)C(C)(C)NC(=O)[C@@H](NC(=O)[C@H](CO)NC(=O)[C@H](Cc1ccc(O)cc1)NC(=O)[C@H](CC(=O)O)NC(=O)[C@H](CO)NC(=O)[C@@H](NC(=O)[C@H](Cc1ccccc1)NC(=O)[C@@H](NC(=O)CNC(=O)[C@H](CCC(=O)O)NC(=O)C(C)(C)NC(=O)[C@@H](N)Cc1ccc(O)cc1)[C@@H](C)O)[C@@H](C)O)[C@@H](C)CC)[C@@H](C)CC)C(C)C)C(=O)N[C@@H](C)C(=O)NCC(=O)NCC(=O)N1CCC[C@H]1C(=O)N[C@@H](CO)C(=O)N[C@@H](CO)C(=O)NCC(=O)N[C@@H](C)C(=O)N1CCC[C@H]1C(=O)N1CCC[C@H]1C(=O)N1CCC[C@H]1C(=O)N[C@@H](CO)C(N)=O` [LY3298176]?
average accumulation following four weekly doses [1]: 1.58; mean steady-state volume of distribution [1]: 9.5 L; Abdominal distension (patients with T2DM; 0.5 mg, N=9): 0 (0.0) n (%); Abdominal pain (patients with T2DM; 0.5 mg, N=9): 0 (0.0) n (%); Acute pancreatitis (patients with T2DM; 0.5 mg, N=9): 0 (0.0) n (%); Decreased appetite (patients with T2DM; 0.5 mg, N=9): 2 (22.2) n (%); Dermatitis allergic (patients with T2DM; 0.5 mg, N=9): 0 (0.0) n (%); Diarrhoea (patients with T2DM; 0.5 mg, N=9): 1 (11.1) n (%); Dyspepsia (patients with T2DM; 0.5 mg, N=9): 0 (0.0) n (%); Eructation (patients with T2DM; 0.5 mg, N=9): 0 (0.0) n (%); Gastrooesophageal reflux disease (patients with T2DM; 0.5 mg, N=9): 0 (0.0) n (%); Headache (patients with T2DM; 0.5 mg, N=9): 1 (11.1) n (%); Hepatic enzyme increased (patients with T2DM; 0.5 mg, N=9): 0 (0.0) n (%); Injection site reaction (patients with T2DM; 0.5 mg, N=9): 0 (0.0) n (%); Nausea (patients with T2DM; 0.5 mg, N=9): 1 (11.1) n (%); Pancreatic enzyme increased (patients with T2DM; 0.5 mg, N=9): 0 (0.0) n (%); Serious adverse events (patients with T2DM; 0.5 mg, N=9): 0 (0.0) n (%); Severe hypoglycaemia (patients with T2DM; 0.5 mg, N=9): 0 (0.0) n (%); Study discontinuation due to adverse events (patients with T2DM; 0.5 mg, N=9): 0 (0.0) n (%); TEAE Mild, events (patients with T2DM; 0.5 mg, N=9): 15 events; TEAE Moderate, events (patients with T2DM; 0.5 mg, N=9): 0 events; TEAE Severe, events (patients with T2DM; 0.5 mg, N=9): 0 events; Total hypoglycaemia (≤70 mg/dL) (patients with T2DM; 0.5 mg, N=9): 0 (0.0) n (%); Vomiting (patients with T2DM; 0.5 mg, N=9): 1 (11.1) n (%); Weight decrease (TEAE) (patients with T2DM; 0.5 mg, N=9): 0 (0.0) n (%); Abdominal distension (patients with T2DM; 5 mg, N=9): 1 (11.1) n (%); Abdominal pain (patients with T2DM; 5 mg, N=9): 0 (0.0) n (%); Acute pancreatitis (patients with T2DM; 5 mg, N=9): 0 (0.0) n (%); Decreased appetite (patients with T2DM; 5 mg, N=9): 6 (66.7) n (%); Dermatitis allergic (patients with T2DM; 5 mg, N=9): 0 (0.0) n (%); Diarrhoea (patients with T2DM; 5 mg, N=9): 1 (11.1) n (%); Dyspepsia (patients with T2DM; 5 mg, N=9): 0 (0.0) n (%); Eructation (patients with T2DM; 5 mg, N=9): 0 (0.0) n (%); Gastrooesophageal reflux disease (patients with T2DM; 5 mg, N=9): 1 (11.1) n (%); Headache (patients with T2DM; 5 mg, N=9): 0 (0.0) n (%); Hepatic enzyme increased (patients with T2DM; 5 mg, N=9): 0 (0.0) n (%); Injection site reaction (patients with T2DM; 5 mg, N=9): 0 (0.0) n (%); Nausea (patients with T2DM; 5 mg, N=9): 1 (11.1) n (%); Pancreatic enzyme increased (patients with T2DM; 5 mg, N=9): 0 (0.0) n (%); Serious adverse events (patients with T2DM; 5 mg, N=9): 0 (0.0) n (%); Severe hypoglycaemia (patients with T2DM; 5 mg, N=9): 0 (0.0) n (%); Study discontinuation due to adverse events (patients with T2DM; 5 mg, N=9): 3 (33.3) n (%); TEAE Mild, events (patients with T2DM; 5 mg, N=9): 17 events; TEAE Moderate, events (patients with T2DM; 5 mg, N=9): 0 events; TEAE Severe, events (patients with T2DM; 5 mg, N=9): 0 events; Total hypoglycaemia (≤70 mg/dL) (patients with T2DM; 5 mg, N=9): 0 (0.0) n (%); Vomiting (patients with T2DM; 5 mg, N=9): 0 (0.0) n (%); Weight decrease (TEAE) (patients with T2DM; 5 mg, N=9): 0 (0.0) n (%); Abdominal distension (patients with T2DM; 5/5/10/10 mg, N=12): 2 (16.7) n (%); Abdominal pain (patients with T2DM; 5/5/10/10 mg, N=12): 0 (0.0) n (%); Acute pancreatitis (patients with T2DM; 5/5/10/10 mg, N=12): 0 (0.0) n (%); Decreased appetite (patients with T2DM; 5/5/10/10 mg, N=12): 5 (41.7) n (%); Dermatitis allergic (patients with T2DM; 5/5/10/10 mg, N=12): 0 (0.0) n (%); Diarrhoea (patients with T2DM; 5/5/10/10 mg, N=12): 3 (25.0) n (%); Dyspepsia (patients with T2DM; 5/5/10/10 mg, N=12): 3 (25.0) n (%); Eructation (patients with T2DM; 5/5/10/10 mg, N=12): 1 (8.3) n (%); Gastrooesophageal reflux disease (patients with T2DM; 5/5/10/10 mg, N=12): 1 (8.3) n (%); Headache (patients with T2DM; 5/5/10/10 mg, N=12): 0 (0.0) n (%); Hepatic enzyme increased (patients with T2DM; 5/5/10/10 mg, N=12): 1 (8.3) n (%); Injection site reaction (patients with T2DM; 5/5/10/10 mg, N=12): 0 (0.0) n (%); Nausea (patients with T2DM; 5/5/10/10 mg, N=12): 1 (8.3) n (%); Pancreatic enzyme increased (patients with T2DM; 5/5/10/10 mg, N=12): 0 (0.0) n (%); Serious adverse events (patients with T2DM; 5/5/10/10 mg, N=12): 0 (0.0) n (%); Severe hypoglycaemia (patients with T2DM; 5/5/10/10 mg, N=12): 0 (0.0) n (%); Study discontinuation due to adverse events (patients with T2DM; 5/5/10/10 mg, N=12): 0 (0.0) n (%); TEAE Mild, events (patients with T2DM; 5/5/10/10 mg, N=12): 54 events; TEAE Moderate, events (patients with T2DM; 5/5/10/10 mg, N=12): 1 events; TEAE Severe, events (patients with T2DM; 5/5/10/10 mg, N=12): 0 events; Total hypoglycaemia (≤70 mg/dL) (patients with T2DM; 5/5/10/10 mg, N=12): 2 (16.7) n (%); Vomiting (patients with T2DM; 5/5/10/10 mg, N=12): 1 (8.3) n (%); Weight decrease (TEAE) (patients with T2DM; 5/5/10/10 mg, N=12): 2 (16.7) n (%); Abdominal distension (patients with T2DM; 5/5/10/15 mg, N=12): 7 (58.3) n (%); Abdominal pain (patients with T2DM; 5/5/10/15 mg, N=12): 2 (16.7) n (%); Acute pancreatitis (patients with T2DM; 5/5/10/15 mg, N=12): 0 (0.0) n (%); Decreased appetite (patients with T2DM; 5/5/10/15 mg, N=12): 11 (91.7) n (%); Dermatitis allergic (patients with T2DM; 5/5/10/15 mg, N=12): 2 (16.7) n (%); Diarrhoea (patients with T2DM; 5/5/10/15 mg, N=12): 5 (41.7) n (%); Dyspepsia (patients with T2DM; 5/5/10/15 mg, N=12): 0 (0.0) n (%); Eructation (patients with T2DM; 5/5/10/15 mg, N=12): 4 (33.3) n (%); Gastrooesophageal reflux disease (patients with T2DM; 5/5/10/15 mg, N=12): 5 (41.7) n (%); Headache (patients with T2DM; 5/5/10/15 mg, N=12): 2 (16.7) n (%); Hepatic enzyme increased (patients with T2DM; 5/5/10/15 mg, N=12): 1 (8.3) n (%); Injection site reaction (patients with T2DM; 5/5/10/15 mg, N=12): 0 (0.0) n (%); Nausea (patients with T2DM; 5/5/10/15 mg, N=12): 6 (50.0) n (%); Pancreatic enzyme increased (patients with T2DM; 5/5/10/15 mg, N=12): 1 (8.3) n (%); Serious adverse events (patients with T2DM; 5/5/10/15 mg, N=12): 0 (0.0) n (%); Severe hypoglycaemia (patients with T2DM; 5/5/10/15 mg, N=12): 0 (0.0) n (%); Study discontinuation due to adverse events (patients with T2DM; 5/5/10/15 mg, N=12): 0 (0.0) n (%); TEAE Mild, events (patients with T2DM; 5/5/10/15 mg, N=12): 87 events; TEAE Moderate, events (patients with T2DM; 5/5/10/15 mg, N=12): 9 events; TEAE Severe, events (patients with T2DM; 5/5/10/15 mg, N=12): 0 events; Total hypoglycaemia (≤70 mg/dL) (patients with T2DM; 5/5/10/15 mg, N=12): 1 (8.3) n (%); Vomiting (patients with T2DM; 5/5/10/15 mg, N=12): 9 (75.0) n (%); Weight decrease (TEAE) (patients with T2DM; 5/5/10/15 mg, N=12): 2 (16.7) n (%); Any TEAE (patients with T2DM; 0.5 mg QW x4 SC, N=9): 5 (55.6) n (%); Any TEAE (patients with T2DM; 5 mg QW x4 SC, N=9): 7 (77.8) n (%); Any TEAE (patients with T2DM; 5/5/10/10 mg QW SC, N=12): 10 (83.3) n (%); Any TEAE (patients with T2DM; 5/5/10/15 mg QW SC, N=12): 11 (91.7) n (%); time of maximum concentration after dosing ([2]; SC, over the doses studied): 24 to 48 h; AUC(0-inf) ([2]; 0.25 mg): 5760 ng·h/mL; CL/F ([2]; 0.25 mg): 0.723 mL/min; Cmax ([2]; 0.25 mg): 26 ng/mL; Tmax ([2]; 0.25 mg): 48 h; Vd/F ([2]; 0.25 mg): 7.26 L; half-life ([2]; 0.25 mg): 116 h; AUC(0-inf) ([2]; 0.5 mg): 12000 ng·h/mL; CL/F ([2]; 0.5 mg): 0.693 mL/min; Cmax ([2]; 0.5 mg): 57.7 ng/mL; Tmax ([2]; 0.5 mg): 48 h; Vd/F ([2]; 0.5 mg): 7.46 L; half-life ([2]; 0.5 mg): 124 h; AUC(0-inf) ([2]; 1 mg): 22600 ng·h/mL; CL/F ([2]; 1 mg): 0.738 mL/min; Cmax ([2]; 1 mg): 108 ng/mL; Tmax ([2]; 1 mg): 24 h; Vd/F ([2]; 1 mg): 6.76 L; AUC(0-inf) ([2]; 2.5 mg): 53200 ng·h/mL; CL/F ([2]; 2.5 mg): 0.783 mL/min; Cmax ([2]; 2.5 mg): 231 ng/mL; Tmax ([2]; 2.5 mg): 24 h; Vd/F ([2]; 2.5 mg): 8.15 L; AUC(0-inf) ([2]; 5 mg): 90500 ng·h/mL; CL/F ([2]; 5 mg): 0.922 mL/min; Cmax ([2]; 5 mg): 397 ng/mL; Tmax ([2]; 5 mg): 24 h; Vd/F ([2]; 5 mg): 9.8 L; AUC(0-inf) ([2]; 8 mg): 169000 ng·h/mL; CL/F ([2]; 8 mg): 0.787 mL/min; Cmax ([2]; 8 mg): 874 ng/mL; Tmax ([2]; 8 mg): 48 h; Vd/F ([2]; 8 mg): 7.55 L; half-life ([2]; mean half-life): ~120 h; lipase and amylase, mean values compared to baseline [3]: Increases from baseline in mean values of lipase and amylase within the normal range; subjects who developed treatment-emergent or treatment-boosted ADAs [4]: Four; drug-related QT prolongation [5]: no signal of drug-related QT prolongation
